# Assay results taken from patent US7592326B2, “Method for stimulating the immune, inflammatory or neuroprotective response” (priority 2004, dated 2009).
# Marks after values point to notes of the source that are not given here.
# Assays:
# [1] = tested on: cytokine mRNA in whole lung; experiment: Cytokine mRNA levels in whole lung homogenates (quantitative PCR); type: in vivo, Balb/c mice
# S. aureus strain NCH57 = experiment: Mouse S. aureus pneumonia (proposed); type: in vivo; settings: 200 nmol 24- and 48 hours prior; 1×10^9 CFU NCH57
# Murine splenic DCs = experiment: Activation of murine splenic DCs; settings: 200 uM, 24 h
# [2] = tested on: Plasmacytoid dendritic cells (pDCs); experiment: IFN secretion by human plasmacytoid dendritic cells; type: cell-based; settings: two independent experiments in duplicate; data not shown
# Method: Venipuncture was performed on consenting adults using approved protocols. Plasmacytoid dendritic cells (pDCs) were prepared, as previously described (Schroeder et al., 2005), using a 2-step procedure involving Percoll density centrifugation followed with selection for Blood Dendritic Cell Antigen (BDCA)-4 positive cells (Miltenyi Biotec, Inc., Auburn, Calif.). The capacity of c-di-GMP to induce IFN-alpha from these cells was assessed using cell culture and ELISA protocols also previously described (Schroeder et al., 2005) and was simultaneously compared to the […] produced by pDC in response to cells stimulated with CpG oligodeoxynucleotide (ODN)-2216 (Krieg, 2002).
# [3] = tested on: PR8 followed by D39 or NCH57; experiment: Secondary bacterial pneumonia following influenza infection in mice (proposed); type: in vivo; settings: 200 nmol/animal 24- and 48 hours prior to bacterial challenge
# Method: To show the effect of c-di-GMP secondary bacterial pneumonia following influenza infection, groups of 6 mice are infected with 100 TCID50 of PR8 and challenged 7 days later with either 1000 CFU of D39, or 1×10^7 CFU of NCH57 and followed twice daily for weight loss, development of secondary bacterial infections by bioluminescent imaging, and mortality. One group of mice is treated with c-di-GMP 24- and 48 hours (e.g., orally, intransal, i.p, s.q. i.m.) prior to bacterial challenge with 200 nmol/animal.
# ERK = experiment: Western blot signaling in human DCs: ERK; type: cell-based; settings: data not shown
# Method: (§1) Human PBMC were isolated by Ficoll density gradient centrifugation from leukopacks supplied by the Department of Transfusion Medicine (Clinical Center, National Institute of Health, Bethesda, Md.). Monocytes were purified (>95%) from human PBMC with MACS CD14 monocyte isolation kit (Miltenyi Biotech Inc., Auburn, Calif.) according to the manufacturer's instruction. DCs were generated as described previously (Yang et al., 2001). In brief, DCs were generated by incubating purified monocytes at 2×10^5/ml in RPMI 1640 containing 10% FBS, 2 mM glutamine, 25 mM HEPES, 100 U/ml penicillin, 100 ug/ml streptomycin, 50 ng/ml recombinant human GM-CSF (PeproTech, Rocky Hill, N.J.), and 50 ng/ml recombinant human IL-4 (PeproTech) at 37° C. in a CO2 (5%) incubator for 7 days. On day 3 and 5 of the incubation, half of the culture medium was replaced with pre-warmed (37° C.) fresh GM-CSF- and IL-4-containing medium. On day 7, DCs were collected, washed three times with PBS, and serum-starved for 8 hours by incubating in serum-free RPMI-1640 containing GM-CSF and IL-4 (2×10^5/ml) at 37° C. in a CO2 (5%) incubator. Subsequently, DCs (2×10^6/sample) were incubated at 37° C. in the absence or presence of c-di-GMP or GMP (Sigma, St. Louis, Mo.) at concentrations specified for 5 or 30 minutes. […]
# lung leukocytes = experiment: Lung leukocyte accumulation in Klebsiella-infected mice (lung digest, flow cytometry); type: in vivo, Balb/c mice
# [4] = tested on: immature DCs (iDC) and mature DCs (mDC); experiment: Cytokine production by dendritic cells (sandwich ELISA of supernatants); type: cell-based, human; settings: 24 h
# Method: Analysis of supernatant cytokine content was performed both on treated (c-di-GMP) or untreated saline control (NaCl) immature DCs (iDC) and mature DCs (mDC). Culture supernatants were collected after 24 h treatment and IL-1β, IL-6, IL-10, IL-12, and TNF- α contents were measured using a sandwich ELISA according to the manufacturer's instructions.
# p38 MAPK = experiment: Western blot signaling in human DCs: p38 MAPK; type: cell-based; settings: 5 and 20 min treatment, FIG. 13A
# Method: as §1
compound,measurement,setting,value
"Nc1nc(=O)c2ncn([C@@H]3OC4COP(=O)(O)O[C@H]5[C@@H](O)[C@H](n6cnc7c(=O)nc(N)[nH]c76)O[C@@H]5COP(=O)(O)OC4C3O)c2[nH]1 (some centres unmarked) [c-di-GMP, Bis(3′→5′)-cyclic diguanylic acid]",IL-12 p40 levels vs control c-GMP,[1]; 24 and 48 hrs post bacterial challenge,increased
same,"MIP-2 mRNA, increase over infected control (c-GMP)","[1]; 24 hr post Klebsiella challenge, p<0.05, FIG. 17D",2 fold
same,IP-10 and IFN-gamma mRNA levels vs control c-GMP,"[1]; 24 hrs post K. pneumoniae, p<0.05",significantly higher
same,"type 1 cytokines IL-12 p40, IFN-gamma, and IP-10 in the lungs","[1]; i.n. pre-treatment, time 0 (pre-infection)",induction
same,induction of TNF-α in response to i.t. bacterial administration,"[1]; pretreatment, data not shown",did not significantly alter
same,survival,S. aureus strain NCH57,greater survival
same,surface expression of co-stimulatory molecules CD80 and CD86,Murine splenic DCs; FIG. 9A,increase
same,TNF and IL-8 protein in supernatant,Murine splenic DCs; FIGS. 9B and 9C,increase
same,induction of Type I IFN from pDC,[2],negative
same,survival,[3],greater survival
same,activation of ERK,ERK,did not activate
same,increase in the number of neutrophils in the lungs of infected mice vs control-pretreated,"lung leukocytes; 48 hr post infection, p<0.01",3 fold
same,total number of lung leukocytes vs control-pretreated,"lung leukocytes; 48 hr post infection, p<0.01",significant increase
same,Total number lung cells,"lung leukocytes; i.n. pretreatment 48 and 24 hr prior, lung digests 48 hrs after K. pneumoniae (kp), uninfected 2.7 × 10^7",4.67 × 10^7*
same,trafficking of myeloid or plasmacytoid DC to the lung in response to bacterial challenge,"lung leukocytes; i.n., data not shown",did not alter
same,"αβTcr^+, CD69^+","lung leukocytes; lung digests 48 hrs after kp, uninfected 0.33 × 10^5",3.7 × 10^5*
same,"DX5^+, CD69^+","lung leukocytes; lung digests 48 hrs after kp, uninfected 0.78 × 10^5",5.98 × 10^5**
same,PMN,"lung leukocytes; lung digests 48 hrs after kp, uninfected 0.8 × 10^6",22 × 10^6**
same,DX5^+ (NK),"lung leukocytes; lung digests 48 hrs after kp, uninfected 1.3 × 10^6",3.8 × 10^6
same,"DX5^+, αβγδTcr^+(NK T^+)","lung leukocytes; lung digests 48 hrs after kp, uninfected 1.6 × 10^5",6.8 × 10^5*
same,Mono/Macrophage,"lung leukocytes; lung digests 48 hrs after kp, uninfected 2.3 × 10^7",1.9 × 10^7
same,αβTcr^+,"lung leukocytes; lung digests 48 hrs after kp, uninfected 2.6 × 10^6",5.5 × 10^6**
same,IL-10 expression,[4]; DCs,no major effect
same,production of TNF-α,"[4]; iDCs, 5 μM, FIG. 3A",dramatic increase
same,IL-12 secretion,[4]; immature DCs,undetectable
same,IL-12 production,"[4]; mDCs (LPS-treated), 50 μM",dramatic increase
same,IL-6 production,"[4]; mDCs (LPS-treated), 100 μM, FIG. 3B",increase
same,IL-1β production,"[4]; mDCs (LPS-treated), FIG. 3B",major increase
same,activation of p38 MAPK (phospho-p38),p38 MAPK,activated
